Assay results taken from patent US20130143929A1, “FUNGICIDAL IMIDAZOLES” (EI DU PONT DE NEMOURS AND COMPANY, priority 2010, published 2013).
Marks after values point to notes of the source that are not given here.

How the values were obtained:
Type in all cases: in vivo
[1] = tested on: Puccinia recondite f. sp. tritici (the causal agent of wheat leaf rust); experiment: Test A: wheat leaf rust, preventive spray on wheat seedlings, visual disease rating; details: for Test A rating (100 = 100% disease control, 0 = no disease control relative to the controls): wheat leaf rust, preventive spray on wheat seedlings
Procedure, shortened: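 This was a preventive test: Puccinia recondite f. sp. tritici inoculum was applied one day after compound spray to run-off. Test suspensions were made in 50/50 acetone/water with 250 ppm surfactant, at 200 ppm (800 g/ha equivalent) or 40 ppm. Visual ratings of % disease control relative to controls were made after 24 h of saturated humidity and 7 growth-chamber days, all at 20° C.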

[2] = tested on: Septoria tritici (the causal agent of wheat leaf blotch); experiment: Test B: wheat leaf blotch, preventive spray on wheat seedlings, visual disease rating; details: for Test B rating (100 = 100% disease control, 0 = no disease control relative to the controls): wheat leaf blotch, preventive spray on wheat seedlings
Procedure, shortened: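 Preventive test: Septoria tritici spores applied one day after run-off spraying of seedlings (200 ppm equals 800 g/ha; some tests 40 ppm). After 48 h at 24 °C saturated atmosphere and 19 days at 20 °C, disease scored visually as % control relative to untreated plants.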

[3] = tested on: Blumeria graminis f. sp. tritici (also known as Erysiphe graminis f. sp. tritici, the causal agent of wheat powdery mildew); experiment: Test D: wheat powdery mildew, preventive spray on wheat seedlings, visual disease rating; details: for Test D rating (100 = 100% disease control, 0 = no disease control relative to the controls): wheat powdery mildew, preventive spray on wheat seedlings
Procedure, shortened: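 Preventive test: seedlings sprayed to run-off and inoculated with powdery mildew spores one day later. Suspensions were made in 50/50 acetone/water with 250 ppm Trem 014 surfactant (200 ppm equals 800 g/ha). Visual ratings after 8 days at 20 °C give percent disease control versus controls.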

[4] = tested on: Botrytis cinerea (the causal agent of tomato Botrytis); experiment: Test C: tomato Botrytis, preventive spray on tomato seedlings, visual disease rating; details: for Test C rating (100 = 100% disease control, 0 = no disease control relative to the controls): tomato Botrytis, preventive spray on tomato seedlings
Procedure, shortened: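 Preventive test: B. cinerea spore inoculation one day after tomato seedlings were sprayed to run-off with compound suspended in 50/50 acetone–water plus 250 ppm surfactant. Plants held 48 h at 20° C in saturated air, then 3 days at 24° C; visual ratings scored 100 (full control) to 0 versus controls; some entries used 40 ppm.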

[5] = asterisk: 40 ppm test suspension
[6] = no asterisk (standard test suspension concentration, not 40 ppm)
[7] = no asterisk: standard test suspension concentration, 100 = 100% disease control, 0 = no control relative to controls

SMILES | Test A rating (100 = 100% disease control, 0 = no disease control relative to the controls) [1, 5] | Test B rating (100 = 100% disease control, 0 = no disease control relative to the controls) [2, 5] | Test D rating (100 = 100% disease control, 0 = no disease control relative to the controls) [3, 5] | Test C rating (100 = 100% disease control, 0 = no disease control relative to the controls) [4, 5] | Test A rating (100 = 100% disease control, 0 = no disease control relative to the controls) [1, 6] | Test B rating (100 = 100% disease control, 0 = no disease control relative to the controls) [2, 6] | Test D rating (100 = 100% disease control, 0 = no disease control relative to the controls) [3, 6] | Test C rating (100 = 100% disease control, 0 = no disease control relative to the controls) [4, 6] | also measured
Cc1ccc(C(O)c2c(Br)nc(C)n2-c2c(F)cccc2F)c(C)c1 (stereo not drawn) [compound 145] | 100* % | 100* % | 98* % | 51* % | – | – | – | – | –
COc1ccc(C(O)c2c(Cl)nc(C)n2-c2ccc(F)cc2Cl)c(Cl)c1 (racemic) [compound 255] | – | – | – | – | 100% | 96% | 0% | 8% | –
Cc1nc(Cl)n(-c2c(F)cc(F)cc2Cl)c1C(O)c1ccc(F)cc1F (racemic) [compound 8] | – | – | – | – | 100% | 100% | 100% | 100% | –
COc1ccc(C(O)c2c(Cl)ncn2-c2c(F)cccc2F)c(Cl)c1 (racemic) [compound 260] | – | – | – | – | 100% | 100% | 96% | 100% | –
Cc1cc(F)ccc1C(O)c1c(C)nc(Cl)n1-c1c(F)cc(F)cc1Cl (racemic) [compound 13] | – | 100* % | – | – | 100% | – | 100% | 99% | –
OC(c1ccc(F)cc1F)c1c(Cl)nc(Cl)n1-c1ccc(Cl)cc1Cl (single isomer, unassigned) [compound 21] | – | – | – | – | 100% | 100% | 69% | 100% | –
Cc1nc(Cl)c(C(O)c2ccc(F)cc2Cl)n1-c1c(F)cccc1Cl (stereo not drawn) [compound 200] | 100* % | 100* % | 98* % | 99* % | – | – | – | – | –
COc1ccc(C(O)c2c(Br)nc(Br)n2-c2ccc(F)cc2Cl)c(Cl)c1 (stereo not drawn) [compound 355] | 100* % | 100* % | 97* % | 100* % | – | – | – | – | –
COc1ccc(C(O)c2c(C)nc(Cl)n2-c2c(F)cccc2Br)c(C)c1 (stereo not drawn) [compound 213] | 100* % | 100* % | 91* % | 100* % | – | – | – | – | –
COc1ccc(C(O)c2c(Br)ncn2-c2c(F)cccc2Cl)c(C)c1 (racemic) [compound 222] | 91* % | 57* % | 0* % | 30* % | – | – | – | – | –
Cc1nc(Br)c(C(O)c2ccc(F)cc2Cl)n1-c1ccc(F)cc1Cl (stereo not drawn) [compound 142] | – | – | – | – | 100% | 100% | 71% | 99% | –
COc1ccc(C(O)c2cnc(C)n2-c2ccc(F)cc2Br)c(F)c1 (stereo not drawn) [compound 303] | 74* % | 43* % | 0* % | 8* % | – | – | – | – | –
OC(c1ccc(Cl)cc1)c1c(Cl)nc(Cl)n1-c1ccc(Cl)cc1Cl (single isomer, unassigned) [compound 87] | – | – | – | – | 91% | 100% | 48% | 60% | –
Cc1nc(Cl)c(C(O)c2ccc(F)cc2Cl)n1-c1ccc(F)cc1F (racemic) [compound 241] | 100* % | 100* % | 21* % | 99* % | – | – | – | – | –
Cc1nc(Br)c(C(O)c2ccc(F)cc2F)n1-c1ccc(F)cc1Cl (stereo not drawn) [compound 399] | – | – | – | – | – | – | – | – | Test A rating (% disease control, wheat leaf rust) [1, 7]: 100%; Test B rating (% disease control, wheat leaf blotch) [2, 7]: 100%; Test D rating (% disease control, wheat powdery mildew) [3, 7]: 90%; Test C rating (% disease control, tomato Botrytis) [4, 7]: 99%
COc1ccc(C(O)c2c(C)nc(Cl)n2-c2c(F)cccc2Br)c(F)c1 (stereo not drawn) [compound 211] | 100* % | 100* % | 98* % | 100* % | – | – | – | – | –
COc1ccc(C(O)c2c(Cl)nc(C)n2-c2ccc(F)cc2Br)c(Cl)c1 (stereo not drawn) [compound 333] | 95* % | 72* % | 86* % | 99* % | – | – | – | – | –
Cc1ncc(C(O)c2ccc(Cl)cc2)n1-c1ccc(Cl)cc1Cl (racemic) [compound 242] | 94* % | 50* % | 0* % | 29* % | – | – | – | – | –
COc1ccc(C(O)c2c(Br)nc(C)n2-c2c(F)cc(F)cc2Br)c(Cl)c1 (stereo not drawn) [compound 351] | 100* % | 100* % | 95* % | 90* % | – | – | – | – | –
OC(c1ccc(F)cc1F)c1c(Cl)nc(Cl)n1-c1c(F)cc(Cl)cc1F (stereo not drawn) [compound 154] | 100* % | 100* % | 89* % | 100* % | – | – | – | – | –
Cc1cc(F)ccc1C(O)c1c(Cl)nc(C)n1-c1c(Cl)cccc1Cl (stereo not drawn) [compound 366] | – | – | – | – | 99% | 100% | 97% | 100% | –
Cc1nc(Cl)n(-c2ccc(F)cc2Cl)c1C(O)c1c(F)cc(F)cc1F (racemic) [compound 30] | – | – | – | – | 100% | 100% | 100% | 100% | –
Cc1ncc(C(O)c2c(F)cc(Cl)cc2F)n1-c1ccc(F)cc1F (racemic) [compound 271] | 0* % | 17* % | 0* % | 0* % | – | – | – | – | –
Cc1nc(Cl)n(-c2c(F)cccc2Br)c1C(O)c1ccc(F)cc1F (stereo not drawn) [compound 205] | 99* % | 100* % | 93* % | 100* % | – | – | – | – | –
